Source: PubChem BioAssay AID1205 (EPA DSSTox, 2008)
Activity calls are given as the source filed them.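 Rule for the calls: active = tumour findings in long-term animal cancer tests in more than one sex, species or organ; inactive = no tumour finding and more than one negative test.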

Assay: DSSTox (CPDBAS) Carcinogenic Potency Database Summary MultiCellCall Results
Settings: animal carcinogenicity bioassays, multi-cell call summary
How it was run: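 Summary call drawn from chronic long-term cancer bioassays in rats, mice, hamsters, dogs and nonhuman primates, using the most positive result per sex-species. Score: multispecies=50, multisex=30, multisite=20, summed for combinations.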
In the case of `O=C/C(Cl)=C(/Cl)C(=O)O`, the outcome was “inactive; multisex inactive”. For `Cc1ccc(N)cc1Cl`, the outcome was “inactive; multisex inactive; multispecies inactive”. In the case of `NN`, the outcome was “active; multisite active; multisex active; multispecies active”. In the case of `CC(=O)OC/C=C(C)/C=C/C=C(C)/C=C/C1=C(C)CCCC1(C)C`, the outcome was “active; multisex active”. With `Cc1ccc2c(c1[N+](=O)[O-])C(=O)c1ccccc1C2=O` the outcome was “active; multisite active; multisex active; multispecies active”. With `Cc1ccc(N=Nc2c(O)c(S(=O)(=O)O)cc3ccc(S(=O)(=O)O)cc23)c(C)c1` the outcome was “active; multisex active; multispecies active”. With `ClC(Cl)=C(Cl)C(Cl)=C(Cl)Cl` the outcome was “active; multisex active”. For `O=P1(N(CCCl)CCCl)NCCCO1` (stereo not drawn), the outcome was “active; multisite active; multisex active; multispecies active”. For `CC(CCl)OC(C)CCl` (stereo not drawn), the outcome was “active; multisite active; multisex active”. For `CCOC(=O)CC(SP(=S)(OC)OC)C(=O)OCC` (stereo not drawn), the outcome was “inactive; multisex inactive; multispecies inactive”. With `NC1CCCCC1` the outcome was “inactive; multisex inactive; multispecies inactive”. In the case of `CN(N=O)C(=O)N[C@@H]1[C@@H](O)[C@H](O)[C@@H](CO)O[C@@H]1O`, the outcome was “active; multisite active; multisex active; multispecies active”. For `CC(=O)[O][Sn]([c]1ccccc1)([c]1ccccc1)[c]1ccccc1`, the outcome was “inactive; multisex inactive”. In the case of `O=[N+]([O-])c1ccccc1`, the outcome was “active; multisite active; multisex active; multispecies active”. In the case of `CC(/C=C/C=C(\C)C(=O)O[C@@H]1O[C@H](CO[C@@H]2O[C@H](CO)[C@@H](O)[C@H](O)[C@H]2O)[C@@H](O)[C@H](O)[C@H]1O)=C\C=C\C=C(C)\C=C\C=C(/C)C(=O)O[C@@H]1O[C@H](CO[C@@H]2O[C@H](CO)[C@@H](O)[C@H](O)[C@H]2O)[C@@H](O)[C@H](O)[C@H]1O`, the outcome was “inactive; multisex inactive”. In the case of `CCC(Cl)CCC(Cl)C(Cl)CC(Cl)C(Cl)C(Cl)CCl` (stereo not drawn), the outcome was “active; multisite active; multisex active; multispecies active”. In the case of `Cc1cc(N=Nc2ccccc2C)ccc1N`, the outcome was “active; multisex active”. In the case of `O=P(=O)O`, the outcome was “inactive; multisex inactive”. In the case of `CCN(CC)C(=S)[S-].CCN(CC)C(=S)[S-].[Cd+2]`, the outcome was “inactive; multisex inactive”. For `Clc1ccc(C(c2ccc(Cl)cc2)C(Cl)(Cl)Cl)cc1`, the outcome was “active; multisite active; multisex active; multispecies active”. For `O=S(=O)(O)c1cc(S(=O)(=O)O)c2c(N=Nc3ccccc3)c(O)ccc2c1`, the outcome was “inactive; multisex inactive; multispecies inactive”. In the case of `O=[N+]([O-])OCC(CO[N+](=O)[O-])O[N+](=O)[O-]`, the outcome was “active; multisite active; multisex active”. With `CC(C)NCC(O)c1ccc(NS(C)(=O)=O)cc1` (stereo not drawn) the outcome was “inactive; multisex inactive; multispecies inactive”. For `CN[C@H]1CC[C@@H](c2ccc(Cl)c(Cl)c2)c2ccccc21`, the outcome was “inactive; multisex inactive; multispecies inactive”. With `c1ccc2c(c1)Nc1ccccc1S2` the outcome was “inactive; multisex inactive”. For `CCCc1cc(=O)[nH]c(=S)[nH]1`, the outcome was “active; multisite active; multisex active; multispecies active”. In the case of `CN(C)CNc1nnc(/C=C/c2ccc([N+](=O)[O-])o2)o1`, the outcome was “active; multisite active”. In the case of `CC(C)(CCCOc1ccc(OCCCC(C)(C)C(=O)O)c(-c2ccccc2)c1)C(=O)O`, the outcome was “active; multisex active”. With `Cn1cc(C(=O)O)c(=O)c2ccc(/C=C/c3ccc([N+](=O)[O-])o3)nc21` the outcome was “active; multisite active”. With `CN(C)CCN(Cc1ccsc1)c1ccccn1` the outcome was “inactive; multisex inactive”. For `Nc1cc(Cl)c(-c2cc(Cl)c(N)cc2Cl)cc1Cl`, the outcome was “inactive; multisex inactive; multispecies inactive”. In the case of `CC(O)CN(C)c1ccc(NN)nn1` (stereo not drawn), the outcome was “inactive; multisex inactive”. With `O=C1c2ccccc2CN2C(=O)c3ccccc3CN12` the outcome was “active; multisite active; multisex active”. For `OCc1ccco1`, the outcome was “active; multisite active; multispecies active”. For `CCOc1ccc(NC(C)=O)cc1`, the outcome was “active; multisite active; multisex active; multispecies active”. In the case of `Clc1ccc(Sc2cc(Cl)c(Cl)cc2Cl)cc1`, the outcome was “inactive; multisex inactive”. In the case of `C=C1C/C(=C/C)C(=O)O[C@@H]2CCN3CC=C(COC(=O)[C@@]1(O)CO)[C@H]23`, the outcome was “active; multisite active; multisex active; multispecies active”. With `NC(=O)c1cccnc1` the outcome was “inactive; multisex inactive”. With `O=NN1CCOC1` the outcome was “active; multisite active; multisex active”. With `ClCC(Cl)(Cl)Cl` the outcome was “active; multisex active”. With `Nc1ccc(/C=C/c2ccc(N)cc2S(=O)(=O)O)c(S(=O)(=O)O)c1` the outcome was “inactive; multisex inactive; multispecies inactive”. In the case of `Nc1c(Cl)c(Cl)nc(C(=O)O)c1Cl`, the outcome was “inactive; multisex inactive; multispecies inactive”. In the case of `CCNc1nc(Cl)nc(NC(C)C)n1`, the outcome was “active; multisite active; multisex active”. In the case of `N[C@@H](Cc1cnc[nH]1)C(=O)O`, the outcome was “inactive; multisex inactive”. With `N[C@@H](CC(=O)O)C(=O)O` the outcome was “inactive; multisex inactive”. For `COc1ccc(N)cc1`, the outcome was “inactive; multisex inactive; multispecies inactive”. With `N#Cc1ccc(C2CCCc3cncn32)cc1` (stereo not drawn) the outcome was “inactive; multisex inactive”. With `Cc1cc(N)ccc1N` the outcome was “inactive; multisex inactive; multispecies inactive”. For `CC1=C(/C=C/C(C)=C/C=C/C(C)=C/C(=O)O)C(C)(C)CCC1`, the outcome was “inactive; multisex inactive; multispecies inactive”. For `O=C1C=CC(=O)C=C1`, the outcome was “active; multisex active”. For `Cl`, the outcome was “inactive; multisex inactive”. With `CCCCNC(=O)N(CCCC)N=O` the outcome was “active; multisite active”. With `C=CCN(CCO)N=O` the outcome was “active; multisite active”. In the case of `COc1cc(-c2ccc(N=C=O)c(OC)c2)ccc1N=C=O`, the outcome was “active; multisite active; multisex active”. For `S=C(S)NCCNC(=S)S`, the outcome was “inactive; multisex inactive”. For `CC1=C(C(=O)OCCN(Cc2ccccc2)c2ccccc2)C(c2cccc([N+](=O)[O-])c2)C(P2(=O)OCC(C)(C)CO2)=C(C)N1` (stereo not drawn), the outcome was “inactive; multisex inactive; multispecies inactive”. In the case of `O.O.O.O.O.O.O=S(=O)([O-])[O-].[Ni+2]`, the outcome was “inactive; multisex inactive; multispecies inactive”. In the case of `OC[C@H]1O[C@H](O[C@]2(CCl)O[C@H](CCl)[C@@H](O)[C@@H]2O)[C@H](O)[C@@H](O)[C@H]1Cl`, the outcome was “inactive; multisex inactive”. For `O=[N+]([O-])c1ccc2ccc3cccc4ccc1c2c34`, the outcome was “active; multisite active”. With `O=CNNC=O` the outcome was “active; multisex active”. In the case of `COP(=O)(OC)OC=C(Cl)Cl`, the outcome was “active; multisite active; multisex active; multispecies active”. With `CC1(C)C(=O)Nc2ccc(C3=NNC(=O)CC3)cc21` the outcome was “active; multisex active”. For `CC(=O)OC[C@]12C[C@H](OC(=O)CC(C)C)C(C)=C[C@H]1O[C@@H]1[C@H](O)[C@@H](OC(C)=O)[C@@]2(C)C12CO2` (stereo partly drawn), the outcome was “active; multisite active”. With `C[C@@H]1CCC[C@H](C)N1CCCC(O)(c1ccccc1)c1ccccn1` (stereo partly drawn) the outcome was “inactive; multisex inactive; multispecies inactive”. With `C=C(Cl)CSC(=S)N(CC)CC` the outcome was “active; multisite active; multisex active; multispecies active”. In the case of `CNC(=O)Oc1cc(C)c(N(C)C)c(C)c1`, the outcome was “inactive; multisex inactive; multispecies inactive”. With `CCC(C)c1cc([N+](=O)[O-])cc([N+](=O)[O-])c1O` (stereo not drawn) the outcome was “inactive; multisex inactive”. With `NC(=O)N(CCc1ccccc1)N=O` the outcome was “active; multisite active; multisex active”. For `Nc1cccc2c(N)cccc12`, the outcome was “active; multisite active; multisex active; multispecies active”. With `[N-]=[N+]=[N-]` the outcome was “inactive; multisex inactive”. For `O=C(O)c1cc(N=Nc2ccc(S(=O)(=O)Nc3ccccn3)cc2)ccc1O`, the outcome was “active; multisite active; multisex active; multispecies active”. In the case of `COc1cc(-c2ccc(N=Nc3c(S(=O)(=O)O)cc4cc(S(=O)(=O)O)cc(N)c4c3O)c(OC)c2)ccc1N=Nc1c(S(=O)(=O)O)cc2cc(S(=O)(=O)O)cc(N)c2c1O`, the outcome was “active; multisite active; multisex active”. With `NS(=O)(=O)c1cc2c(cc1Cl)NCNS2(=O)=O` the outcome was “inactive; multisex inactive; multispecies inactive”. With `O=c1ccc(=O)[nH][nH]1` the outcome was “inactive; multisex inactive; multispecies inactive”. For `CC(O)CN(CC(O)CO)N=O` (stereo not drawn), the outcome was “active; multisite active; multispecies active”. With `c1ccc2sc(SSc3nc4ccccc4s3)nc2c1` the outcome was “inactive; multisex inactive”. For `COc1c(Cl)c(Cl)c([N+](=O)[O-])c(Cl)c1Cl`, the outcome was “inactive; multisex inactive; multispecies inactive”. With `CN(C)CCN(C)N=O` the outcome was “active; multisite active; multisex active”. In the case of `ClC(Cl)=C(Cl)Cl`, the outcome was “active; multisite active; multisex active; multispecies active”. For `NC(=O)c1cnccn1`, the outcome was “inactive; multisex inactive; multispecies inactive”. In the case of `CC#N`, the outcome was “inactive; multisex inactive; multispecies inactive”. With `C/C=C/c1ccc(OC)cc1` the outcome was “inactive; multisex inactive”. With `CCCCCCCCCCN(C)N=O` the outcome was “active; multisite active”. For `O=C1CN(/N=C/c2ccc([N+](=O)[O-])o2)C(=O)N1`, the outcome was “active; multisite active; multisex active; multispecies active”. In the case of `COC(=O)C(c1ccccc1)C1CCCCN1N=O` (stereo not drawn), the outcome was “inactive; multisex inactive”. In the case of `NC(=S)Nc1ccccc1`, the outcome was “inactive; multisex inactive; multispecies inactive”. For `CN(C)NC(=O)CCC(=O)O`, the outcome was “active; multisite active; multisex active; multispecies active”. In the case of `O=[As](O)(O)O`, the outcome was “inactive; multispecies inactive”. With `COc1cc(/C=C/C(=O)O[C@H]2CC[C@]34C[C@]35CC[C@]3(C)[C@@H]([C@H](C)CCC=C(C)C)CC[C@@]3(C)[C@@H]5CC[C@H]4C2(C)C)ccc1O` the outcome was “inactive; multisex inactive; multispecies inactive”. For `CC(C(O)c1ccccc1)N(C)N=O` (stereo not drawn), the outcome was “active; multisite active”. For `NCCCCCCCCCCC(=O)O`, the outcome was “active; multisite active”. In the case of `Cc1cnc(NC(=O)C2=C(O)c3ccccc3S(=O)(=O)N2C)s1`, the outcome was “inactive; multisex inactive”. For `NNc1nc(-c2ccc(N)cc2)cs1`, the outcome was “active; multisite active; multispecies active”.
